TGI data for three compounds are collected here from PubChem BioAssay (NCI).

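In this assay, cells in 96-well plates receive the compound at five concentrations for 48 hours. Endpoints are linearly interpolated between the surrounding concentrations. TGI marks complete inhibition of growth.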

Some test systems named below: TK-10 renal; SK-OV-3 ovarian; OVCAR-4 ovarian; K-562 leukemia; NCI-H226 lung; U251 CNS; UACC-257 melanoma; SW-620 colon; A498 renal; SR leukemia; 786-0 renal; T-47D breast; OVCAR-5 ovarian.
Assay in all cases: DTP human tumour cell line panel, 48 h

As usually defined, the TGI is the concentration giving total growth inhibition. A high value points to less potent growth arrest. On to `CC1NC(/C(=C/c2ccccc2O)NC(=O)c2ccccc2)OC1=O` (centres undefined), for which the TGI with TK-10 renal, in the assay with SK-OV-3 ovarian, in the assay on OVCAR-4 ovarian, with K-562 leukemia, with NCI-H226 lung and with U251 CNS was over 50 µM throughout. Besides, the total growth inhibition concentration (TGI) in the assay with UACC-257 melanoma, in the assay with SW-620 colon, in the assay with A498 renal, with SR leukemia, with 786-0 renal and with T-47D breast was over 50 µM in each case. In the assay with OVCAR-5 ovarian, this compound came in with a TGI of over 50 µM.

Regarding `O=C1/C(=C\c2cccc(Oc3ccccc3)c2)SC(c2ccccc2)N1c1ccc(Cl)cc1` (centres undefined), the TGI with TK-10 renal was over 100 µM; with SK-OV-3 ovarian it was over 100 µM; in the assay with OVCAR-4 ovarian, over 100 µM; in the assay on K-562 leukemia, over 90.8 µM; in the assay on NCI-H226 lung it was over 100 µM; in the assay on U251 CNS, over 100 µM. Moreover, the TGI in the assay on UACC-257 melanoma was over 100 µM; in the assay with SW-620 colon, over 100 µM; with A498 renal, over 100 µM; in the assay on SR leukemia, over 55.9 µM; in the assay on 786-0 renal, over 100 µM; in the assay on T-47D breast, over 100 µM. This compound showed a TGI with OVCAR-5 ovarian of over 100 µM.

On to `CC(C)/C=N\n1c(N)c(C#N)c(C#N)c1C(C)C`, for which the TGI with TK-10 renal was over 100 µM; in the assay with SK-OV-3 ovarian it was over 100 µM; with OVCAR-4 ovarian, 84.9 µM; with K-562 leukemia, over 100 µM; in the assay with NCI-H226 lung, 64.6 µM; with U251 CNS, over 100 µM. In addition, the TGI was 50.3 µM in the assay on UACC-257 melanoma; over 100 µM with SW-620 colon; 69.5 µM in the assay on A498 renal; over 100 µM in the assay on SR leukemia; over 100 µM with 786-0 renal; 66.3 µM with T-47D breast. In the assay with OVCAR-5 ovarian, this compound displayed a TGI of over 100 µM.
